US20250179047A1, “5-[7-(3,4-DIHYDRO-1H-ISOQUINOLINE-2-CARBONYL)-1,2,3,4 TETRAHYDROISOQUINOLIN-6-YL]-1H-PYRROLE-3-CARBOXAMIDE DERIVATIVES, PHARMACEUTICAL COMPOSITIONS CONTAINING THEM AND THEIR USES AS PRO-APOPTOTIC AGENTS” (LES LABORATOIRES SERVIER, priority 2022, published 2025)

Experiments:
[1] = target: BCL2 WT (Homo sapiens (Human), UniProt P10415); test: TR-FRET competitive binding assay, BCL2 WT; conditions: Ki determined from IC50, read-out: TR_FRET EKI_Bcl2 WT
Method in brief: (§1)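 Competitive TR-FRET displacement of fluorescein-PUMA peptide (2 or 20 nM) from 0.5 nM terbium-labelled N-terminal Halo-fusion BCL2 (1-207, wild type or mutant) or BCLXL (2-196), expressed in E. coli. Buffer 50 mM Hepes pH 7.5, 150 mM NaCl, 5% DMSO; 2 h at 23°C. 520/495 nm ratio fitted over 11 points for IC50, converted to Ki.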

[2] = target: BCL2 G101V (Homo sapiens, UniProt P10415, G101V); test: TR-FRET competitive binding assay, BCL2 G101V; conditions: BCL2 G101V; Ki determined from IC50; read-out: TR_FRET EKI_Bcl2 G101V
Method in brief: as §1

[3] = system: BCL2 G101V; test: TR-FRET competitive binding assay, BCL2 G101V; parameters: species or system human; conditions: ratio Ki BCL2 G101V / Ki BCL2 WT
Method in brief: as §1

[4] = target: BCL2 D103Y (Homo sapiens, UniProt P10415, D103Y); test: TR-FRET competitive binding assay, BCL2 D103Y; conditions: Ki determined from IC50, read-out: TR_FRET EKI_Bcl2 D103Y
Method in brief: as §1

[5] = target: BCLXL WT (Homo sapiens (Human), UniProt Q07817); test: TR-FRET competitive binding assay, BCLXL WT; conditions: for Ki: BCLXL WT, Ki determined from IC50, read-out: TR_FRET EKI BclxL; for TR_FRET EKI BCLxL/WT selectivty ratio: ratio Ki BCLxL / Ki BCL2 WT
Method in brief: as §1

[6] = system: KMS-12-PE Bcl-2 WT; test: In vitro cytotoxicity CellTiter-Glo 48 h, KMS-12-PE Bcl-2 WT; format: cell-based; conditions: Homo sapiens, KMS-12-PE, C50 = concentration needed to reach 50% of the cellular viability
Method in brief: (§2)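 Transduce KMS-12-PE with Bcl-2 WT or G101V lentivirus, then FACS-sort RFP-positive cells. Add compounds in an 11-point dilution series and incubate 48 h at 37 °C. Measure ATP-based luminescence with CellTiter-Glo and derive C50 (50% viability).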

[7] = system: KMS-12-PE Bcl-2 G101V; test: In vitro cytotoxicity CellTiter-Glo 48 h, KMS-12-PE Bcl-2 G101V; format: cell-based; conditions: for Ratio (G101V/WT): C50 KMS-12-PE Bcl-2 G101V over C50 KMS-12-PE Bcl-2 WT; for IC50: Homo sapiens, KMS-12-PE, 48 h, CellTiter-Glo, C50 = concentration needed to reach 50% of the cellular viability
Method in brief: as §2

Sequence of BCLXL WT (Q07817 other isoform, or with tags, fused parts or gaps): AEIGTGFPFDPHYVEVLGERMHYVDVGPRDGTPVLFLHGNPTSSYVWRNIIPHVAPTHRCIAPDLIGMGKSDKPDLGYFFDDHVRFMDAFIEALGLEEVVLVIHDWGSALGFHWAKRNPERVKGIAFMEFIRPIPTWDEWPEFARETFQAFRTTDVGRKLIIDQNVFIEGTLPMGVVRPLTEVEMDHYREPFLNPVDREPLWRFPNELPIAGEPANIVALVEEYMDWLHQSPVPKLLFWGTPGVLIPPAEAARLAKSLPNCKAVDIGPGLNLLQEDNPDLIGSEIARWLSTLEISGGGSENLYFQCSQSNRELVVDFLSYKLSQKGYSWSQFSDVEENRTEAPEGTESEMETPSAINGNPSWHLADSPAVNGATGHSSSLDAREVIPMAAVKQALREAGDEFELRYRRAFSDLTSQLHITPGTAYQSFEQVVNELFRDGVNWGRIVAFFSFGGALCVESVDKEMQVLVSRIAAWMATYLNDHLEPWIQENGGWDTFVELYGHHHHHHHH

| Compound | Ki [1] | Ki [2] | TR_FRET EKI G101V/WT selectivty ratio [3] | Ki [4] | Ki [5] | TR_FRET EKI BCLxL/WT selectivty ratio [5] | IC50 [6] | Ratio (G101V/WT) [7] | IC50 [7] |
| --- | --- | --- | --- | --- | --- | --- | --- | --- | --- |
| Cc1c(C(=O)N(c2ccc(O)cc2)c2cc(C#N)n(C(F)F)c2C)cc(-c2cc3c(cc2C(=O)N2Cc4ccccc4C[C@H]2CN2CCCCC2)CN(C(=O)Cc2ccc(OCCN4CCN(CCF)CC4)cc2F)CC3)n1C [Example 159, N-[5-cyano-1-(difluoromethyl)-2-methylpyrrol-3-yl]-5-{2-[2-(2-fluoro-4-{2-[4-(2-fluoroethyl)piperazin-1-yl]ethoxy}phenyl)acetyl]-7-{[(3S)-3-(piperidin-1-ylmethyl)-3,4-dihydro-1H-isoquinolin-2-yl]carbonyl}-3,4-dihydro-1H-isoquinolin-6-yl}-N-(4-hydroxyphenyl)-1,2-dimethylpyrrole-3-carboxamide] | 0.05 nM | 0.3 nM | 5.1 | 0.13 nM | 3.7 nM | 69.8 | 0.0079 µM | 4.9873 | 0.0392 µM |
| Cc1c(C(=O)N(c2ccc(O)cc2)c2cc(C#N)n(C(F)F)c2C)cc(-c2cc3c(cc2C(=O)N2Cc4ccccc4C[C@H]2CN2CCCCC2)CN(C(=O)Cc2ccc(OCCN(C)C4CC4)cc2)CC3)n1C [Example 163, N-[5-cyano-1-(difluoromethyl)-2-methyl-pyrrol-3-yl]-5-[2-[2-[4-[2-[cyclopropyl(methyl)amino]ethoxy]phenyl]acetyl]-7-[(3S)-3-(1-piperidylmethyl)-3,4-dihydro-1H-isoquinoline-2-carbonyl]-3,4-dihydro-1H-isoquinolin-6-yl]-N-(4-hydroxyphenyl)-1,2-dimethyl-pyrrole-3-carboxamide] | 0.16 nM | 0.8 nM | 5.3 | 0.64 nM | 8.3 nM | 51.9 | 0.01 µM | 5.97 | 0.0597 µM |
| COc1ncc(N(C(=O)c2cc(-c3cc4c(cc3C(=O)N3Cc5ccccc5C[C@H]3CN3CCCCC3)CN(C(=O)Cc3ccc(OCCN5CCOCC5)cc3F)CC4)n(C)c2C)c2ccc(O)cc2)cc1F [Example 164, 5-[2-(2-{2-fluoro-4-[2-(morpholin-4-yl)ethoxy]phenyl}acetyl)-7-{[(3S)-3-(piperidin-1-ylmethyl)-3,4-dihydro-1H-isoquinolin-2-yl]carbonyl}-3,4-dihydro-1H-isoquinolin-6-yl]-N-(5-fluoro-6-methoxypyridin-3-yl)-N-(4-hydroxyphenyl)-1,2-dimethylpyrrole-3-carboxamide] | 0.08 nM | 0.6 nM | 7.5 | 0.13 nM | 9.3 nM | 120.8 | 0.0054 µM | 9.1529 | 0.0497 µM |
| COc1ccc(N(C(=O)c2cc(-c3cc4c(cc3C(=O)N3Cc5ccccc5C[C@H]3CN3CCCCC3)CN(C(=O)Cc3ccc(OCCN5CCOCC5)cc3F)CC4)n(C)c2C)c2ccc(O)cc2)cn1 [Example 165, 5-[2-(2-{2-fluoro-4-[2-(morpholin-4-yl)ethoxy]phenyl}acetyl)-7-{[(3S)-3-(piperidin-1-ylmethyl)-3,4-dihydro-1H-isoquinolin-2-yl]carbonyl}-3,4-dihydro-1H-isoquinolin-6-yl]-N-(4-hydroxyphenyl)-N-(6-methoxypyridin-3-yl)-1,2-dimethylpyrrole-3-carboxamide] | 0.04 nM | 0.8 nM | 21.1 | 0.13 nM | 10 nM | 277.8 | 0.0092 µM | 9.0393 | 0.0828 µM |

Now from value to compound, other results behind:

| Ki [1] | Ki [2] | TR_FRET EKI G101V/WT selectivty ratio [3] | Ki [4] | Ki [5] | TR_FRET EKI BCLxL/WT selectivty ratio [5] | Compound | IC50 [6] | Ratio (G101V/WT) [7] | IC50 [7] |
| --- | --- | --- | --- | --- | --- | --- | --- | --- | --- |
| 0.04 nM | 0.3 nM | 7.7 | 0.09 nM | 2 nM | 45.5 | Cc1c(N(C(=O)c2cc(-c3cc4c(cc3C(=O)N3Cc5ccccc5C[C@H]3CN3CC[C@H](C)C3)CN(C(=O)Cc3ccc(OCCN5CCOCC5)cc3F)CC4)n(C)c2C)c2ccc(O)cc2)cc(C#N)n1C [Example 157, N-(5-cyano-1,2-dimethylpyrrol-3-yl)-5-[2-(2-{2-fluoro-4-[2-(morpholin-4-yl)ethoxy]phenyl}acetyl)-7-{[(3S)-3-{[(3S)-3-methylpyrrolidin-1-yl]methyl}-3,4-dihydro-1H-isoquinolin-2-yl]carbonyl}-3,4-dihydro-1H-isoquinolin-6-yl]-N-(4-hydroxyphenyl)-1,2-dimethylpyrrole-3-carboxamide] | 0.0171 µM | 5.5848 | 0.0955 µM |
| 0.1 nM | 0.9 nM | 9.4 | 0.47 nM | 5.4 nM | 54.0 | Cc1c(C(=O)N(c2ccc(O)cc2)c2cc(C#N)n(C(F)F)c2C)cc(-c2cc3c(cc2C(=O)N2Cc4ccccc4C[C@H]2CN2CCCCC2)CN(C(=O)Cc2ccc(OCCN4CCC(F)CC4)cc2F)CC3)n1C [Example 158] | 0.0068 µM | 8.0412 | 0.0546 µM |
| 0.03 nM | 0.2 nM | 6.3 | 0.18 nM | 1.5 nM | 55.6 | Cc1c(C(=O)N(c2ccc(O)cc2)c2cc(C#N)n(C(F)F)c2C)cc(-c2cc3c(cc2C(=O)N2Cc4ccccc4C[C@H]2CN2CCCCC2)CN(C(=O)Cc2ccc(OCCN4CCN(C)CC4)cc2F)CC3)n1C [Example 160, N-[5-cyano-1-(difluoromethyl)-2-methylpyrrol-3-yl]-5-[2-(2-{2-fluoro-4-[2-(4-methylpiperazin-1-yl)ethoxy]phenyl}acetyl)-7-{[(3S)-3-(piperidin-1-ylmethyl)-3,4-dihydro-1H-isoquinolin-2-yl]carbonyl}-3,4-dihydro-1H-isoquinolin-6-yl]-N-(4-hydroxyphenyl)-1,2-dimethylpyrrole-3-carboxamide] | 0.0113 µM | 3.8053 | 0.043 µM |
| 0.05 nM | 0.3 nM | 7.0 | 0.14 nM | 2.9 nM | 61.7 | Cc1c(N(C(=O)c2cc(-c3cc4c(cc3C(=O)N3Cc5ccccc5C[C@H]3CN3CCCCC3)CN(C(=O)Cc3ccc(OCCN5CCOCC5)cc3Cl)CC4)n(C)c2C)c2ccc(O)cc2)cc(C#N)n1C [Example 161, 5-[2-[2-[2-chloro-4-(2-morpholinoethoxy)phenyl]acetyl]-7-[(3S)-3-(1-piperidylmethyl)-3,4-dihydro-1H-isoquinoline-2-carbonyl]-3,4-dihydro-1H-isoquinolin-6-yl]-N-(5-cyano-1,2-dimethyl-pyrrol-3-yl)-N-(4-hydroxyphenyl)-1,2-dimethyl-pyrrole-3-carboxamide] | 0.0092 µM | 4.6212 | 0.0427 µM |
